{"source": "patent US9173836B2", "about": "“Pharmaceutical preparations for treatments of diseases and disorders of the breast” (FemmeParma Holding Company, Inc., priority 2003, dated 2015)", "key": {"[1]": {"system": "women treated for cyclical mastalgia", "details": "in vivo; cited from earlier work"}, "in vitro": {"test": "in vitro", "details": "for recovery at 48 h, 100 µM: % Recovery", "method": "Dermatomed human abdominal skin was obtained from Asterand Inc. (Detroit, Mich.). The donor was a person. […] After thawing at room temperature, the skin was soaked in saline for 30 minutes, and then cut to the appropriate size (approximately 4 cm^2) necessary. Excess moisture and saline were wiped off. The tissue was immediately transferred to the Franz-cell diffusion chamber and clamped between the donor and receiver chambers. The exposed surface area of the Franz-cell diffusion chamber was 1.77 cm^2. The receiver compartment was filled with 8 mL KRB buffer. The reservoir also contained a stirring bar to mix the reservoir contents. […] The temperature was set to maintain the tissue surface at 32° C.\nSamples (1.0 mL) were taken from the receiver compartment at 0, 2, 4, 8, 24, and 48 hours for formulation assays and the control assay. After taking samples, an equal volume of receiver KRB buffer was added back to replace the buffer removed. For the control assay, 200 μl of dosing solution (prior to 0 hours) was taken from the container and 200 μl of 0 and 48 hours samples were taken from the donor side of the chamber.\nThe liquid chromatography phase was carried out using a Keystone Hypersil BDC C12 30×2.0 mm i.d., 3 μm, with guard column and 25 mM ammonium formate buffer (pH 3.5), where Aqueous Reservoir (A) was 90% water, 10% buffer, and Organic Reservoir (B) was 90% acetonitrile, 10% buffer. A flow rate of 300 μL/minute was applied to a gradient program of 0.0 min: 100% A, 0% B; 1.5 min: 0% A, 100% B; 2.0 min: 0% A, 100% B; 2.1 min: 100% A, 0% B; 3.5 min: 100% A, 0% B; for a total run time of 3.5 minutes (Autosampler: 30 μL injection volume; Autosampler Wash: water/acetonitrile/2-propanol:1/1/1; with 0.2% formic acid). Mass spectroscopy was carried out using a PE SCIEX API 3000 (interface: turbo ionspray; mode: multiple reaction monitoring; method: 3.5 minute duration).\nThe following calculations were performed: Flux=d[(Cr×Vr)/A]/dt"}, "[2]": {"type": "in vitro ADME", "details": "10 μg/ml, pH 7.4", "method": "The concentration in the apparatus was determined after 0 and 180 minutes of incubation to mimic a skin permeation experiment. […] The experiment was done in triplicate."}, "[3]": {"details": "Formulations 1 and 2"}}, "note": "Like-named read-outs stand apart in the source and are kept apart here. Marks after values point to notes of the source that are not given here."}
{"compound": "CC(C)C[C@H]1C(=O)N2CCC[C@H]2[C@]2(O)O[C@](NC(=O)[C@@H]3C=C4c5cccc6[nH]c(Br)c(c56)C[C@H]4N(C)C3)(C(C)C)C(=O)N12", "note": "[Bromocriptine]", "values": [{"measurement": "Women complaining of more severe side effects", "setting": "[1]", "value": 10, "unit": "%"}, {"measurement": "Women reporting mild side effects (nausea, dizziness, headaches, irritability)", "setting": "[1]", "value": 30, "unit": "%"}]}
{"compound": "Cn1c(=O)c2c(ncn2C)n(C)c1=O", "note": "[Caffeine, caffeine]", "values": [{"measurement": "Dosing solution concentration, Mean ± S.D.", "setting": "in vitro; 100 μM", "value": "108.7 ± 1.5", "unit": "µM"}, {"measurement": "Cumulative Receiver Concentration", "setting": "in vitro; female, human, 0 h, 100 μM", "value": "0* μM"}, {"measurement": "Cumulative Receiver Concentration, Mean ± S.D.", "setting": "in vitro; female, human, 0 h, 100 μM", "value": "0 ± 0", "unit": "µM"}, {"measurement": "Donor concentration, Mean ± S.D.", "setting": "in vitro; female, human, 0 h, 100 μM", "value": "102.7 ± 0.6", "unit": "µM"}, {"measurement": "Cumulative Receiver Concentration, Mean ± S.D.", "setting": "in vitro; female, human, 2 h, 100 μM", "value": "0.009 ± 0.015", "unit": "µM"}, {"measurement": "Cumulative Receiver Concentration, Mean ± S.D.", "setting": "in vitro; female, human, 4 h, 100 μM", "value": "0.018 ± 0.030", "unit": "µM"}, {"measurement": "Cumulative Receiver Concentration, Mean ± S.D.", "setting": "in vitro; female, human, 8 h, 100 μM", "value": "0.050 ± 0.075", "unit": "µM"}, {"measurement": "Cumulative Receiver Concentration, Mean ± S.D.", "setting": "in vitro; female, human, 24 h, 100 μM", "value": "0.196 ± 0.254", "unit": "µM"}, {"measurement": "Cumulative Receiver Concentration, Mean ± S.D.", "setting": "in vitro; female, human, 48 h, 100 μM", "value": "0.390 ± 0.469", "unit": "µM"}, {"measurement": "Donor concentration, Mean ± S.D.", "setting": "in vitro; female, human, 48 h, 100 μM", "value": "102.4 ± 11.2", "unit": "µM"}, {"measurement": "recovery at 48 h, 100 µM", "setting": "in vitro; female, human", "value": 104, "unit": "%"}, {"measurement": "recovery at 48 h, 100 µM", "setting": "in vitro; female, human, Mean ± S.D.", "value": "95.6 ± 8.7", "unit": "%"}]}
{"compound": "C#C[C@]1(O)CC[C@H]2[C@@H]3CCC4=Cc5oncc5C[C@]4(C)[C@H]3CC[C@@]21C", "note": "[Danazol, danazol]", "values": [{"measurement": "Average Measured Concentration ± STD (N = 3)", "setting": "[2]; 0 min", "value": "8.9 ± 0.3", "unit": "µg/mL"}, {"measurement": "Average Measured Concentration ± STD (N = 3)", "setting": "[2]; 180 min", "value": "8.5 ± 0.3", "unit": "µg/mL"}]}
{"compound": "lucifer yellow", "values": [{"measurement": "Lucifer yellow permeation (membrane integrity)", "setting": "[3]", "value": "no permeation of Lucifer yellow detectable until after 8 or 24 hours of incubation"}, {"measurement": "% Recovery, Mean ± S.D.", "setting": "in vitro", "value": "85.3 ± 5.4", "unit": "%"}, {"measurement": "Papp", "setting": "in vitro", "value": 0, "unit": "×10⁻⁶ cm/s"}, {"measurement": "Papp, Mean ± S.D.", "setting": "in vitro", "value": "0 ± 0 ×10^−6 cm/s"}, {"measurement": "Tissue integrity marker in receiver buffer", "setting": "in vitro", "value": "below lower limit of quantification (LLOQ) in all receiver buffer"}]}
